# Tests used:
# Rattus norvegicus [1] = assay: Effect on ventral prostate weight with reference to control in Wistar rat at 10 mg/kg/day, po; assay type: functional, Prostate gland; settings: Rattus norvegicus, Wistar, Prostate gland
# Rattus norvegicus [2] = assay: Effect on ventral prostate weight with reference to control in Wistar rat at 30 mg/kg/day, po; assay type: functional; settings: Prostate gland
# Progesterone receptor = molecular target: T1, Progesterone receptor (Rattus norvegicus, UniProt Q63449); assay: Inhibition of rat PR
# T1 sequence (Q63449 whole entry): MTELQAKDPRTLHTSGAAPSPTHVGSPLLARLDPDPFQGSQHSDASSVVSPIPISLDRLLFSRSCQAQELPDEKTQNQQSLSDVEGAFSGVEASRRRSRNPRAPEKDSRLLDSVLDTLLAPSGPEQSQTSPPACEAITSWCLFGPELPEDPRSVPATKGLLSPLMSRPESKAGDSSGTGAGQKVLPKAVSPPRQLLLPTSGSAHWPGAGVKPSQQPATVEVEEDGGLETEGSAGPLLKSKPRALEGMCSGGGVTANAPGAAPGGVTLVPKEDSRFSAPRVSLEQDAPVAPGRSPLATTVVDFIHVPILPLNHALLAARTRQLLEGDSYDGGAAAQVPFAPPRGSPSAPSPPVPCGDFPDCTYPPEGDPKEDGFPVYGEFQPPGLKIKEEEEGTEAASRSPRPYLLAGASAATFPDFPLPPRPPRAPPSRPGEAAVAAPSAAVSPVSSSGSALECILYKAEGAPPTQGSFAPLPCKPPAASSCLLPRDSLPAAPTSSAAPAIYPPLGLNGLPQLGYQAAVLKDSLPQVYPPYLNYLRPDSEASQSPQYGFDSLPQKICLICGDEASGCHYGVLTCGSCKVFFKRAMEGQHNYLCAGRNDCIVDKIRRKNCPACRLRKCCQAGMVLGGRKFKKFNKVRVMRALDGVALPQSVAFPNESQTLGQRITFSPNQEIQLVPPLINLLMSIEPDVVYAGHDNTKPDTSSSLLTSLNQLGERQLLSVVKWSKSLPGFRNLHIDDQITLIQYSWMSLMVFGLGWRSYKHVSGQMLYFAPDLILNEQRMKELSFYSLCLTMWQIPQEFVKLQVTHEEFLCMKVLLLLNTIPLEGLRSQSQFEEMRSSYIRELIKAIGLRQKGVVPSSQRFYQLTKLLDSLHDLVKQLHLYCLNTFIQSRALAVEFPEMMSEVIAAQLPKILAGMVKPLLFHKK
# Glucocorticoid receptor = molecular target: T2, Glucocorticoid receptor (Homo sapiens, UniProt P04150); assay: Inhibition of human GR
# T2 sequence (P04150 whole entry): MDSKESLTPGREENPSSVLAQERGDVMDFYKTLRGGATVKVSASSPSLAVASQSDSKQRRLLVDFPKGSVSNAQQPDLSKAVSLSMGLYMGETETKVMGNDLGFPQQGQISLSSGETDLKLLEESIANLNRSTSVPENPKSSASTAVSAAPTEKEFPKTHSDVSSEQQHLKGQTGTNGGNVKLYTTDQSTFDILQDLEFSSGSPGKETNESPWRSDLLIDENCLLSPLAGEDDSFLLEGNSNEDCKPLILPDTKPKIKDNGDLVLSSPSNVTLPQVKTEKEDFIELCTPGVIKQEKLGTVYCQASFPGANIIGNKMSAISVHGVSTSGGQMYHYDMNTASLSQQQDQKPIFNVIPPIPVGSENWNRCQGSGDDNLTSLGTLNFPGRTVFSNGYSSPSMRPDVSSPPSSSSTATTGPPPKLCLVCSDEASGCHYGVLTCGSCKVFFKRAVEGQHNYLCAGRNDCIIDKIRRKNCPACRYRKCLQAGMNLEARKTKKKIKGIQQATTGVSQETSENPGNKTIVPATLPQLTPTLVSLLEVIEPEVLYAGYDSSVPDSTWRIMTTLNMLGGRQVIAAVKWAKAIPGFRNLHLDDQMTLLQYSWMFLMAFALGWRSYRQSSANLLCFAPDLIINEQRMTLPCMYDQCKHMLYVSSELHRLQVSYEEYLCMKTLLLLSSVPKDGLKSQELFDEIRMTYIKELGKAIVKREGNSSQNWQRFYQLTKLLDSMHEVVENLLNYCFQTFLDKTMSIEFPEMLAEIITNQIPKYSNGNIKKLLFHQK
# Estrogen receptor = molecular target: T3, Estrogen receptor (Homo sapiens, UniProt P03372); assay: Inhibition of human ERalpha
# T3 sequence (P03372 whole entry): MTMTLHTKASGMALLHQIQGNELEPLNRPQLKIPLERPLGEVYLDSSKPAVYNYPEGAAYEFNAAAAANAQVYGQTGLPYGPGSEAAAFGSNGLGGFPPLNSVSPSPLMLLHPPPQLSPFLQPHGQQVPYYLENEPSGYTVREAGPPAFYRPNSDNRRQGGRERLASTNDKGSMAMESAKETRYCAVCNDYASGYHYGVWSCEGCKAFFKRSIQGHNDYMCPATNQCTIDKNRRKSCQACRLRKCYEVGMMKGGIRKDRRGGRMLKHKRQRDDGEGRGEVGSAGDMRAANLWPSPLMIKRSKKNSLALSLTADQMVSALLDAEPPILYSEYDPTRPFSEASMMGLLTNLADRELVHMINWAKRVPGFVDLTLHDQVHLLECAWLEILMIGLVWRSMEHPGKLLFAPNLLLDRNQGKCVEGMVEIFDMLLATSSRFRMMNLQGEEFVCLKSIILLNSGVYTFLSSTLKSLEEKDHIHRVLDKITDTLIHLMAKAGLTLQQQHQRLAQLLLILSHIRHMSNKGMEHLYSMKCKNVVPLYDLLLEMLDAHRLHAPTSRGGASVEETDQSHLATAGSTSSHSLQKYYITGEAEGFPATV
# [3] = Cmax in rat plasma at 3 mg/kg, po; assay type: ADME, organism-based; parameters: dose 3 mg/kg, route oral
# [4] = AUC (0-72)hrs in rat plasma at 3 mg/kg, po; assay type: ADME, organism-based; parameters: time < 72 hr, dose 3 mg/kg, route oral
# [5] = Half life in rat plasma at 3 mg/kg, po; assay type: ADME, organism-based; parameters: dose 3 mg/kg, route oral
# [6] = Oral clearance in rat at 3 mg/kg, po; assay type: ADME, organism-based; parameters: dose 3 mg/kg, route oral; settings: in vivo
# [7] = Cmax in rat ventral prostate at 3 mg/kg, po; assay type: ADME, organism-based, Prostate gland; parameters: dose 3 mg/kg, route oral
# [8] = AUC (0-72)hrs in rat ventral prostate at 3 mg/kg, po; assay type: ADME, organism-based, Prostate gland; parameters: time < 72 hr, dose 3 mg/kg, route oral
# [9] = Half life in rat ventral prostate at 3 mg/kg, po; assay type: ADME, organism-based, Prostate gland; parameters: dose 3 mg/kg, route oral
# [10] = Oral clearance in rat ventral prostate at 3 mg/kg, po; assay type: ADME, organism-based, Prostate gland; parameters: dose 3 mg/kg, route oral
# [11] = Cmax in rat hypothalamus at 3 mg/kg, po; assay type: ADME, organism-based; parameters: dose 3 mg/kg, route oral
# [12] = AUC (0-72)hrs in rat hypothalamus at 3 mg/kg, po; assay type: ADME, organism-based; parameters: time < 72 hr, dose 3 mg/kg, route oral
structure (smiles),measurement,setting,value
C[C@@H]1CN(c2ccc(C#N)c(C(F)(F)F)c2)[C@@H](C)CN1C(=O)Nc1ccc(C(F)(F)F)nc1 (racemic),inhibition in vivo at 10 mg/kg/day,Rattus norvegicus [1],67%
same,ED50,Rattus norvegicus [2],2.2 mg/kg
same,Ki,Progesterone receptor,3.3 µM
same,Ki,Glucocorticoid receptor,> 100 µM
same,Ki,Estrogen receptor,> 100 µM
same,Cmax,[3],702 ng/mL
same,AUC at 72 h,[4],22000 ng·h/mL
same,half-life,[5],12.5 h
same,CL/F,[6],2.22 mL/min/kg
same,Cmax,[7],1560 ng/mL
same,AUC at 72 h,[8],43200 ng·h/mL
same,half-life,[9],11.2 h
same,CL/F,[10],1.14 mL/min/kg
same,Cmax,[11],96 ng/mL
same,AUC at 72 h,[12],2580 ng·h/mL
